Data on 30 molecules can be found in US11072585B2 (PharmAkea, Inc., priority 2015, dated 2021).

SMILES strings stand for the structures. Counter-ions that a name gives are not always drawn.

Sequence of human LOXL2 (Q9Y4K0 26-774): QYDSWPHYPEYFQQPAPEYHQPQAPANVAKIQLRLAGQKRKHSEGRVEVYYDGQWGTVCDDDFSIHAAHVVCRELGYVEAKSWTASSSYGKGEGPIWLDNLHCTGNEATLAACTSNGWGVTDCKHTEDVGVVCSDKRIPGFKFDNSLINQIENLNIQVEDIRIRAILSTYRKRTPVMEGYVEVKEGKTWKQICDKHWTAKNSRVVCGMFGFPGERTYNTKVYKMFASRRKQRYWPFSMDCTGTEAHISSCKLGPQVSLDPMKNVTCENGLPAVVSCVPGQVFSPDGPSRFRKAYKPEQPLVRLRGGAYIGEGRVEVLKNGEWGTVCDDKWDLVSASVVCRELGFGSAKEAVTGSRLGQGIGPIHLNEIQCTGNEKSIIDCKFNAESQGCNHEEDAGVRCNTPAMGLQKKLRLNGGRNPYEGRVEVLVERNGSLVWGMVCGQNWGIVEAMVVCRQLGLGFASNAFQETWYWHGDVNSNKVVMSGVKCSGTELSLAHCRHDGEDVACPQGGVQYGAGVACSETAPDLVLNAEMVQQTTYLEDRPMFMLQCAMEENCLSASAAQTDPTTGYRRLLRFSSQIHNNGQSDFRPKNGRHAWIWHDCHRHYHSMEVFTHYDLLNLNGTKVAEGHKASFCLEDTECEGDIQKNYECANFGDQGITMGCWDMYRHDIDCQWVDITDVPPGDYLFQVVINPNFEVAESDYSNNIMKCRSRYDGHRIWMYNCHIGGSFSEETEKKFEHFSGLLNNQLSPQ

The target in this experiment is human LOXL2 (Homo sapiens (Human), UniProt Q9Y4K0). Kind of experiment: Human LOXL2 amine oxidase activity assay (Amplex Red). It counts as biochemical. The conditions noted are these: concentrated conditioned media from CHO cells stably expressing human LOXL2; 2 h at 37° C. with compound; DAP substrate. The procedure:
Example B-1: Human LOXL2 Amine Oxidase Activity Assay
LOXL2 amine oxidase activity is evaluated by measuring Amplex Red fluorescence using 10-20× concentrated conditioned media from CHO cells stably expressing human LOXL2. To assay for amine oxidase activity, 10 μL of the concentrated conditioned media is incubated with 2 μL of test compound in DMSO and 73 μL Assay Buffer (50 mM Borate Buffer, pH8) for 2 h at 37° C. After the 2 h incubation, 5 ul of 10 mM 1,5-Diaminopentane (DAP) diluted in Assay Buffer and 10 μl of Amplex Red Mix (8.5 μl Assay Buffer+0.5 μl of 10 mM Amplex Red+1 μl of 500 U/ml Horseradish Peroxidase) are added and the plate mixed and immediately placed on the FlexStaion for fluorescence measurements. Fluorescence is read in kinetic mode every 2 min for 1 hour at excitation=544 and emission=590. The amine oxidase activity is calculated from the slope of the linear portion of the curve.
Usually IC50 stands for the midpoint of a concentration-inhibition curve. Regarding `CC(C)C(=O)N1CCC[C@H](Oc2cc(CN)cc(C(F)(F)F)n2)C1` [Compound 1-52, (S)-1-(3-((4-(Aminomethyl)-6-(trifluoromethyl)pyridin-2-yl)oxy)piperidin-1-yl)-2-methylpropan-1-one trifluoroacetate], the IC50 was below 300 nM.
In the case of `NCc1cc(Oc2cccc3c2CCC(=O)N3CCO)nc(C(F)(F)F)c1` [Compound 1-60, 5-((4-(Aminomethyl)-6-(trifluoromethyl)pyridin-2-yl)oxy)-1-(2-hydroxyethyl)-3,4-dihydroquinolin-2(1H)-one hydrochloride] it was 300 to 1000 nM; in that of `N#CC1CN(C(=O)c2cccc(Oc3cc(CN)cc(C(F)(F)F)n3)c2)C1` [Compound 1-199, 1-(3-((4-(Aminomethyl)-6-(trifluoromethyl)pyridin-2-yl)oxy)benzoyl)azetidine-3-carbonitrile trifluoroacetate], below 300 nM.
The figure for `C#C[C@@H](CC(=O)O)NC(=O)c1cccc(Oc2cc(CN)cc(C(F)(F)F)n2)c1` [Compound 1-223, (R)-3-(3-((4-(aminomethyl)-6-(trifluoromethyl)pyridin-2-yl)oxy)benzamido)pent-4-ynoic acid hydrochloride] is 300 to 1000 nM; for `NCc1cc(O[C@H]2CCCN(C(=O)c3cccnc3)C2)nc(C(F)(F)F)c1` [Compound 1-49, (S)-(3-((4-(Aminomethyl)-6-(trifluoromethyl)pyridin-2-yl)oxy)piperidin-1-yl)(pyridin-3-yl)methanone trifluoroacetate] it is below 300 nM.
In the case of `NCc1cc(O[C@H]2CCCN(C(=O)c3cc(=O)c4ccccc4o3)C2)nc(C(F)(F)F)c1` [Compound 1-48, (S)-2-(3-((4-(Aminomethyl)-6-(trifluoromethyl)pyridin-2-yl)oxy)piperidine-1-carbonyl)-4H-chromen-4-one trifluoroacetate] it was below 300 nM; in that of `NCc1cc(NCc2cccc(C(=O)N3CC[C@H](O)C3)c2)nc(C(F)(F)F)c1` [Compound 1-237, (S)-(3-(((4-(Aminomethyl)-6-(trifluoromethyl)pyridin-2-yl)amino)methyl)phenyl)(3-hydroxypyrrolidin-1-yl)methanone hydrochloride], 300 to 1000 nM; in that of `NCc1cc(Oc2cccc(-c3cn[nH]c3)c2)nc(C(F)(F)F)c1` [Compound 1-6, (2-(3-(1H-Pyrazol-4-yl)phenoxy)-6-(trifluoromethyl)pyridin-4-yl)methanamine trifluoroacetate], below 300 nM.
Consider `NCc1cc(Oc2cccc(C(=O)N3CCC[C@@H]3C(=O)O)c2)nc(C(F)(F)F)c1` [Compound 1-25, (R)-1-(3-((4-(Aminomethyl)-6-(trifluoromethyl)pyridin-2-yl)oxy)benzoyl)pyrrolidine-2-carboxylic acid hydrochloride], for which the IC50 was 300 to 1000 nM.
The figure for `NCc1cc(Oc2cccc(C(=O)N3CC[C@@H](F)C3)c2)nc(C(F)(F)F)c1` [Compound 1-212, (R)-(3-((4-(Aminomethyl)-6-(trifluoromethyl)pyridin-2-yl)oxy)phenyl)(3-fluoropyrrolidin-1-yl)methanone hydrochloride] is below 300 nM; for `NCc1cc(Oc2cccc(C(=O)N3C[C@@H](F)[C@@H](O)C3)c2)nc(C(F)(F)F)c1` (racemic) [Compound 1-211, Racemic-cis-(3-((4-(aminomethyl)-6-(trifluoromethyl)pyridin-2-yl)oxy)phenyl)(3-fluoro-4-hydroxypyrrolidin-1-yl)methanone hydrochloride] it is below 300 nM; for `NCc1cc(Oc2cccc(C(=O)NCc3ccc(F)cc3)c2)nc(C(F)(F)F)c1` [Compound 1-9, 3-((4-(Aminomethyl)-6-(trifluoromethyl)pyridin-2-yl)oxy)-N-(4-fluorobenzyl)benzamide hydrochloride] it is below 300 nM.
The figure for `NCc1cc(O[C@H]2CCCN(C(=O)c3cncnc3)C2)nc(C(F)(F)F)c1` [Compound 1-50, (S)-(3-((4-(Aminomethyl)-6-(trifluoromethyl)pyridin-2-yl)oxy)piperidin-1-yl)(pyrimidin-5-yl)methanone trifluoroacetate] is below 300 nM; for `COC(=O)c1cccc(C(=O)Nc2cc(CN)cc(C(F)(F)F)n2)c1` [Compound 1-238, Methyl 3-((4-(aminomethyl)-6-(trifluoromethyl)pyridin-2-yl)carbamoyl)benzoate trifluoroacetate] it is below 300 nM.
In the case of `Cl.[2H]C([2H])(N)c1cc(Oc2cccc(C(=O)Nc3ccccc3)c2)nc(C(F)(F)F)c1` [Compound 1-8, 3-((4-(Aminomethyl-d2)-6-(trifluoromethyl)pyridin-2-yl)oxy)-N-phenylbenzamide hydrochloride] it was below 300 nM; in that of `NCc1cc(Oc2cccc3c2ccn3CC(=O)N2CCCCC2)nc(C(F)(F)F)c1` [Compound 1-56, 2-(4-((4-(Aminomethyl)-6-(trifluoromethyl)pyridin-2-yl)oxy)-1H-indol-1-yl)-1-(piperidin-1-yl)ethanone], 300 to 1000 nM.
`CCOC(=O)CN1C(=O)CCc2c(Oc3cc(CN)cc(C(F)(F)F)n3)cccc21` [Compound 1-235, Ethyl 2-(5-((4-(aminomethyl)-6-(trifluoromethyl)pyridin-2-yl)oxy)-2-oxo-3,4-dihydroquinolin-1(2H)-yl)acetate]: the IC50 lay within 300 to 1000 nM.
As for `NCc1cc(-n2ccccc2=O)nc(C(F)(F)F)c1` [Compound 1-161, 4′-(Aminomethyl)-6′-(trifluoromethyl)-2H-[1,2′-bipyridin]-2-one hydrochloride], the half-inhibitory concentration (IC50) is above 1000 nM.
As to `NCc1cc(O[C@H]2CCN(C(=O)Nc3ccccc3)C2)nc(C(F)(F)F)c1` [Compound 1-40, (S)-3-((4-(Aminomethyl)-6-(trifluoromethyl)pyridin-2-yl)oxy)-N-phenylpyrrolidine-1-carboxamide trifluoroacetate], the IC50 was below 300 nM.
The figure for `NCc1cc(Oc2cccc3[nH]ccc23)nc(C(F)(F)F)c1` [Compound 1-58, (2-((1H-Indol-4-yl)oxy)-6-(trifluoromethyl)pyridin-4-yl)methanamine] is below 300 nM.
In the case of `C#CCNC(=O)c1cccc(Oc2cc(CN)cc(C(F)(F)F)n2)c1` [Compound 1-248, 3-((4-(Aminomethyl)-6-(trifluoromethyl)pyridin-2-yl)oxy)-N-(prop-2-yn-1-yl)benzamide hydrochloride] it was below 300 nM; in that of `NCc1cc(OCc2cccc(C(=O)N3C[C@@H](O)[C@H](F)C3)c2)nc(C(F)(F)F)c1` (racemic) [Compound 1-36, Racemic-trans-(3-(((4-(aminomethyl)-6-(trifluoromethyl)pyridin-2-yl)oxy)methyl)phenyl)(3-fluoro-4-hydroxypyrrolidin-1-yl)methanone hydrochloride], below 300 nM.
In the case of `NCc1cc(Oc2cccc(C(=O)NC3(CO)CC3)c2)nc(C(F)(F)F)c1` [Compound 1-31, 3-((4-(Aminomethyl)-6-(trifluoromethyl)pyridin-2-yl)oxy)-N-(1-(hydroxymethyl)cyclopropyl)benzamide hydrochloride] it was below 300 nM.
`NCc1cc(Oc2cccc(C(=O)N3C[C@@H](F)[C@@H](O)C3)c2)nc(C(F)(F)F)c1` (single isomer, unassigned) [Compound 1-250, (R,S) or (S,R)-cis-(3-((4-(Aminomethyl)-6-(trifluoromethyl)pyridin-2-yl)oxy)phenyl)(3-fluoro-4-hydroxypyrrolidin-1-yl)methanone hydrochloride]: the IC50 is below 300 nM.
The figure for `NCc1cc(Oc2cccc(C(=O)N3C[C@@H](F)[C@@H](O)C3)c2)nc(C(F)(F)F)c1` (single isomer, unassigned) [Compound 1-251, (R,S) or (S,R)-cis-(3-((4-(Aminomethyl)-6-(trifluoromethyl)pyridin-2-yl)oxy)phenyl)(3-fluoro-4-hydroxypyrrolidin-1-yl)methanone hydrochloride] is below 300 nM; for `NCc1cc(Oc2cccc(C(=O)N[C@H]3COCC[C@@H]3O)c2)nc(C(F)(F)F)c1` [Compound 1-208, 3-((4-(Aminomethyl)-6-(trifluoromethyl)pyridin-2-yl)oxy)-N-((3S,4S)-4-hydroxytetrahydro-2H-pyran-3-yl)benzamide hydrochloride] it is below 300 nM; for `C#C[C@@H](CC(=O)OC)NC(=O)c1cccc(Oc2cc(CN)cc(C(F)(F)F)n2)c1` [Compound 1-222, Methyl (R)-3-(3-((4-(aminomethyl)-6-(trifluoromethyl)pyridin-2-yl)oxy)benzamido)pent-4-ynoate hydrochloride] it is below 300 nM.
The figure for `CN(CCO)C(=O)c1cccc(Oc2cc(CN)cc(C(F)(F)F)n2)c1` [Compound 1-202, 3-((4-(Aminomethyl)-6-(trifluoromethyl)pyridin-2-yl)oxy)-N-(2-hydroxyethyl)-N-methylbenzamide hydrochloride] is below 300 nM; for `Cc1cc(=O)n(Cc2cc(CN)cc(C(F)(F)F)n2)c(=O)n1Cc1ccccc1` [Compound 1-134, 3-((4-(Aminomethyl)-6-(trifluoromethyl)pyridin-2-yl)methyl)-1-benzyl-6-methylpyrimidine-2,4(1H,3H)-dione hydrochloride] it is below 300 nM; for `NCc1cc(NCc2cccc(C(=O)Nc3ccccc3)c2)nc(C(F)(F)F)c1` [Compound 1-105, 3-(((4-(Aminomethyl)-6-(trifluoromethyl)pyridin-2-yl)amino)methyl)-N-phenylbenzamide hydrochloride] it is below 300 nM.
